Patent US11413278B2, “Compounds and methods for promoting stress resistance” (priority 2015, dated 2022)
Like-named read-outs stand apart in the source and are kept apart here.

How the values were obtained:
[1] = tested on: WI-38 cells; assay: MMS resistance assay; format: cell-based, human; conditions: for fold induction at 10 µM: Homo sapiens, 12 h, normalized ATP measurement
In short: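 WI-38 cells were given compounds at five final concentrations (0.25–20 μM) in triplicate, followed by cadmium or MMS for 12 h. For MMS, medium was switched from OptiMEM+10% FBS to serum-free DMEM+2% BSA when compounds were added, 24 h before stressor. Two independent assays were run, analysed by global variance t-test.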

[2] = tested on: PC12 cells expressing poly(Q)103-Htt-EGFP; assay: Poly(Q) toxicity & viability analysis (cellular model of Huntington's disease); format: cell-based, rat; conditions: for M = Huntington's poly-Q toxicity attenuation: score; for K = Huntington's poly-Q toxicity attenuation: summary score
In short: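 PC12 cells stably carrying inducible poly(Q)103-Htt-EGFP, whose induced expression causes aggregation and toxicity. Viability read 48 hrs later as ATP content by CellTiter-Glo.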

[3] = tested on: phosphorylated γH2A.X and TP53BP1; assay: DNA damage marker analysis (immuno-staining); conditions: for activity at 10 µM: Homo sapiens, WI-38, 24 h; for P = Potential DNA-damaging / R = Potential DNA damaging: human, 24 h
In short: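 WI-38 cells were cultured 24 h, then treated with compounds for 24 h; H2O2 (700 μM, 3 h) and doxorubicin (300 nM, 24 h) served as DNA-damage controls. After fixation, cells were immunostained for phospho-γH2A.X (Ser-139) and phospho-TP53BP1 (Ser-1778), counterstained with DAPI, and imaged by automated high-content microscopy.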

[4] = tested on: WI-38 cells; assay: Long-term effects on cell viability (5 days, ATP; morphology, PI imaging); format: cell-based; conditions: 10 μM; for Luminescence signal for ATP measurement, day-1 Average / Luminescence signal for ATP measurement, day-2 Average / Luminescence signal for ATP measurement, day-3 Average / Luminescence signal for ATP measurement, day-4 Average / Luminescence signal for ATP measurement, day-5 Average / viability at 10 µM: Batch 1; for Luminescence signal for ATP measurement, day-1 Average / Luminescence signal for ATP measurement, day-2 Average / Luminescence signal for ATP measurement, day-3 Average / Luminescence signal for ATP measurement, day-4 Average / Luminescence signal for ATP measurement, day-5 Average: n = 6, day-0 luminescence = 320956 ± 24708; for viability at 10 µM: Homo sapiens, WI-38, 120 h, DMSO ctrl = 100.0%, read-out: ATP luminescence by day-5 normalized; for Luminescence signal for ATP measurement, day-5 Average / viability at 10 µM: day-5;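 for Luminescence signal for ATP measurement, day-2 Average: compounds at 10 µM with ATP read daily over 5 days of treatment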;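 for Luminescence signal for ATP measurement, day-3 Average: compounds at 10 µM with ATP read daily over 5 days of treatment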;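 for Luminescence signal for ATP measurement, day-4 Average: compounds at 10 µM with ATP read daily over 5 days of treatment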;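 for Luminescence signal for ATP measurement, day-5 Average: compounds at 10 µM with ATP read daily over 5 days of treatment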
[5] = tested on: WI-38 cells; conditions: for No H2O2 stress treatment, at 10 uM (fold change): normalized ATP measurement; for Assay 1: H2O2-resistant: YES/NO, if NO, possibly due to repeated freezing/thawing of stocks
[6] = Exp. 1, WI-38 cells, read-out: Exp. 1, under MMS stress treatment, at 10 uM (fold change)
[7] = Exp. 2, WI-38 cells, read-out: Exp. 2, under MMS stress treatment, at 10 uM (fold change)
[8] = score in summary of 38 core set hits
[9] = read-out: Experiment 1, H2A.X-P DNA damage foci staining (no H2O2 stress treatment), at 10 uM
[10] = read-out: Experiment 2, H2A.X-P DNA damage foci staining (no H2O2 stress treatment), at 10 uM
[11] = read-out: Experiment 2, H2A.X-P DNA damage foci staining (under H2O2 stress treatment), at 10 uM
[12] = read-out: Experiment 2, TP53BP1-P DNA damage foci staining (no H2O2 stress treatment), at 10 uM
[13] = read-out: Experiment 2, TP53BP1-P DNA damage foci staining (under H2O2 stress treatment), at 10 uM
[14] = WI-38 cells, 10 μM, (*) = compromised ability to protect cells from H2O2, could be due to stability issue
[15] = asterisks indicate the loss of the ability to protect cells from H2O2 over time
[16] = read-out: Est. ED50, dose response 0.6-20 μM, H2O2-resistance
[17] = derived from dose response curves, 0.6-20 uM, H2O2-resistance of WI-38 cells

| SMILES | fold induction at 10 µM [1, 6] | fold induction at 10 µM [1, 7] | B = MMS resistant [1, 8] | B = MMS resistant ([1]; summary score) | D = Triple resistant ([1]; summary score) | M = Huntington's poly-Q toxicity attenuation [2] | K = Huntington's poly-Q toxicity attenuation [2] | activity at 10 µM [3, 9] | activity at 10 µM [3, 10] | activity at 10 µM [3, 11] | activity at 10 µM [3, 12] | activity at 10 µM [3, 13] | P = Potential DNA-damaging [3] | R = Potential DNA damaging [3] | O = Potential toxicity ([4]; human, 5 days) | Q = Potential toxicity ([4]; human, 5 days) | H2O2-resistant [5, 14] | No H2O2 stress treatment, at 10 uM (fold change) ([5]; WI-38 cells) | Assay 1: H2O2-resistant [5] | H2O2-resistant [5, 15] | other results |
| --- | --- | --- | --- | --- | --- | --- | --- | --- | --- | --- | --- | --- | --- | --- | --- | --- | --- | --- | --- | --- | --- |
| O=C(NCc1cccnc1)/C(=C\c1ccc(Br)cc1)S(=O)(=O)c1ccccc1 [Gr-7B] | 0.39 | 1.45 | 0 | 0 | 0 | 0 | 0 | 695% | 348% | 74% | 31.3% | 4.2% | 0 | 0 | 1 | 1 | YES (*) | 0.56 fold change | YES | YES (*) | Luminescence signal for ATP measurement, day-1 Average [4]: 311883; Luminescence signal for ATP measurement, day-2 Average [4]: 56498; Luminescence signal for ATP measurement, day-3 Average [4]: 40001; Luminescence signal for ATP measurement, day-4 Average [4]: 44298; Luminescence signal for ATP measurement, day-5 Average [4]: 40768; viability at 10 µM [4]: 4%; Reduction of ATP content after 5 days of continuous incubation ([4]; human, 5 days): more than 40%; EC50 [5, 16]: 24.7 µM |
| O=C(NCc1cccnc1)/C(=C/c1ccc(-c2ccc(Cl)cc2)o1)S(=O)(=O)c1ccccc1 [Gr-7C] | 1.14 | 1.39 | 0 | 0 | 0 | 1 | 1 | 132% | 135% | 82.9% | 196% | 369% | 0 | 0 | 0 | 1 | YES | 0.87 fold change | YES | YES | Viability of PC12 cells upon induction of toxic poly(Q)103-Htt-EGFP aggregates ([2]; 2.5 μM, 5 μM, 10 μM and 20 μM): consistently increased the viability; Assay 20: Huntington's poly-Q toxicity attenuation ([2]; 10 uM, YES/NO): YES; Luminescence signal for ATP measurement, day-1 Average [4]: 378655; Luminescence signal for ATP measurement, day-2 Average [4]: 140712; Luminescence signal for ATP measurement, day-3 Average [4]: 84446; Luminescence signal for ATP measurement, day-4 Average [4]: 72490; Luminescence signal for ATP measurement, day-5 Average [4]: 127440; viability at 10 µM [4]: 12.4%; EC50 [5, 17]: 14.2 µM; EC50 [5, 16]: 2.59 µM |
| O=C1NCCCc2cc(Cl)sc21 [O1] | 1.2 | 4.96 | 0 | 0 | 0 | 0 | 0 | 102% | 104% | 216% | 143% | 336% | 0 | 0 | 0 | 0 | YES | 0.92 fold change | YES | YES | Luminescence signal for ATP measurement, day-1 Average [4]: 461478; Luminescence signal for ATP measurement, day-2 Average [4]: 722566; Luminescence signal for ATP measurement, day-3 Average [4]: 824266; Luminescence signal for ATP measurement, day-4 Average [4]: 1101026; Luminescence signal for ATP measurement, day-5 Average [4]: 977541; viability at 10 µM [4]: 95.2%; EC50 [5, 17]: 13.2 µM; EC50 [5, 16]: 13.2 µM |
| CC1C(=O)C(C)C(c2cc(Cl)ccc2O)NC1c1cc(Cl)ccc1O (stereo not shown) [O6] | 0.81 | 0.79 | 0 | 0 | 0 | 0 | 0 | 122% | 87.7% | 130% | 86.3% | 538% | 0 | 0 | 0 | 0 | YES | 1.07 fold change | YES | YES | EC50 [5, 17]: 9.8 µM; EC50 [5, 16]: 9.8 µM |
| O=C(Nc1nc(C23CC4CC(CC(C4)C2)C3)cs1)C(c1ccccc1)c1ccccc1 [O10] | 1.08 | 4.08 | 0 | 0 | 0 | 0 | 0 | 102% | 71.5% | 153% | 135% | 498% | 0 | 0 | 0 | 0 | YES | 1.08 fold change | YES | YES | Luminescence signal for ATP measurement, day-1 Average [4]: 560153; Luminescence signal for ATP measurement, day-2 Average [4]: 740923; Luminescence signal for ATP measurement, day-3 Average [4]: 847945; Luminescence signal for ATP measurement, day-4 Average [4]: 1079863; Luminescence signal for ATP measurement, day-5 Average [4]: 1066130; viability at 10 µM [4]: 104%; EC50 [5, 17]: 9.5 µM; EC50 [5, 16]: 9.5 µM |
